Our source for the Number of jumps values is patent US20050222135A1, “Active substance combination” (priority 2004, published 2005).

The structures appear in SMILES notation.

The series deals with male Swiss albino mice. Particulars: 30 minute period after 2 mg/kg naloxone i.v.; Morphine 5 mg/kg/day s.c. over 4 days, Cizolirtine (as citrate) 40 mg/kg/day i.p. On the procedure: Pharmacodyn. 1971, 190, pages 213-218 in male Swiss albino mice (weight 20-25 g, Harlan Iberica, S. Feliu de Codinas, Barcelona, Spain).
Withdrawal symptoms are then induced by the intravenous administration of a suitable opioid antagonist in a dose known to those skilled in the art, for example, 2 mg/kg naloxone in case of morphine, 30 minutes after the administration of the final dose of the opioid is completed.
After the administration of 2 mg/kg naloxone 30 minutes after the administration of the final dose of the active substance combination has been completed, the mice are closely watched for withdrawal symptoms, namely jumps and shakes (of the wet dog shake type), which are then counted and registered.

As to `CN1CC[C@]23c4c5ccc(O)c4O[C@H]2[C@@H](O)C=C[C@H]3[C@H]1C5` [Morphine], the Number of jumps came to 6.6.
